One may read the IC50 as the concentration that gives 50% inhibition. Read a high IC50 as lower potency.

For two molecules, IC50 results are on record in BindingDB's records for patent US20240173440 (Nuclidium, 2024).

This experiment concerns the target T1, Prolyl endopeptidase FAP (Homo sapiens, UniProt Q12884).
T1 sequence (Q12884 whole entry): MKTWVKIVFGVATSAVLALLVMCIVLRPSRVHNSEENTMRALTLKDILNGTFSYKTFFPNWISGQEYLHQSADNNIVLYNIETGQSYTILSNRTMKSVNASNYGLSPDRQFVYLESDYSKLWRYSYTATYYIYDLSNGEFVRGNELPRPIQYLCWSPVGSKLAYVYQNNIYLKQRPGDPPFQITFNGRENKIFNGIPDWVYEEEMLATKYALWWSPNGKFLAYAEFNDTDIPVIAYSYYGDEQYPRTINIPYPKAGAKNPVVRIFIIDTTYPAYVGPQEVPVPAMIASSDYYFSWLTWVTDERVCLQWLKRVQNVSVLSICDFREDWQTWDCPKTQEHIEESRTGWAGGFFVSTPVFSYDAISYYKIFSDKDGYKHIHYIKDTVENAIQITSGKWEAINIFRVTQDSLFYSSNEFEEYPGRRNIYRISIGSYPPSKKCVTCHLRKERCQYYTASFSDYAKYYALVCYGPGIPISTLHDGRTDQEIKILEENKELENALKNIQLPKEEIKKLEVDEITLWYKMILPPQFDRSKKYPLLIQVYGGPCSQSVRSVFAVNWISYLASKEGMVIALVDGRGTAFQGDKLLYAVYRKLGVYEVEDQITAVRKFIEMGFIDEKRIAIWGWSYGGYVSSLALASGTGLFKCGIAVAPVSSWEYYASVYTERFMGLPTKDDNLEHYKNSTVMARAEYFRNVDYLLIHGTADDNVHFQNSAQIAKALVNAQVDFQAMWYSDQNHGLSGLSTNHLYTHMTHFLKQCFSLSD
Briefly: In Vitro hFAP Inhibition Assay. Here is the method: FAPI-46 was used as positive control. Experiments were performed in triplicate, and the mean fluorescence values were fitted using Graph Pad Prism 9 (equation used: Y=Bottom+(Top−Bottom)/(1+((X^HillSlope)/(IC50^HillSlope)))).

Molecules are shown by their SMILES.

As to `CN(C(=O)CCC(=O)NCCNC(=O)CCC(C(=O)O)[N+]12CC[N+]34CC[N+]5(CC1)CC(=O)[O][Cu]352[O]C(=O)C4)c1ccc2nccc(C(=O)NCC(=O)N3CC(F)(F)C[C@H]3C#N)c2c1` (some centres not stated) [US20240173440, Compound [natCu]Cu-NODAGA-F2], the IC50 was determined as 0.12 nM.

Turning to `N#C[C@@H]1CC(F)(F)CN1C(=O)CNC(=O)c1ccnc2ccc(NC(=O)CCC(=O)N3CCN(C(=O)CCC(C(=O)O)[N+]45CC[N+]67CC[N+]8(CC4)CC(=O)[O][Cu]685[O]C(=O)C7)CC3)cc12` (some centres not stated) [US20240173440, Compound [natCu]Cu-NODAGA-F3], the IC50 amounted to 0.04 nM. Compared with the last molecule, the IC50 is about 3-fold lower.
